In US11622954B2, “Estrogen receptor ligands, compositions and methods related thereto” (The Regents of the University of California, priority 2016, dated 2023):
Blank lines part the entries; values can stand above or below the compound they belong to.

Experiments:
[1] = DPN concentration 24 hours after dosing in adoptive EAE mice (Example 2); format: in vivo
Procedure: This experiment was larger since 2 sets of mice (donors and recipients) were needed and 2 doses were used, making the adoptive EAE experiment 4 times larger than the active EAE experiment 1.
Brain and spinal cord levels were undetectable 24 hours after dosing.

[2] = concentrations over time in plasma, spinal cord and brain, adoptive EAE setup (Example 4); format: in vivo, mice; conditions: for persistence in brain and spinal tissue: 12 hours
Procedure: The experimental setup and monitoring was the same as in Example 2. […] Both Compounds 1 and 2 persisted in brain and spinal tissue at 12 hours.

[3] = DPN concentration in plasma, spinal cord and brain of active EAE mice (Example 1); conditions: three hours after the end of disease; FIG. 1B-1D
[4] = system: active EAE; test: active EAE clinical score (Example 1); format: in vivo, C57BL6 female mice; conditions: high dose (8 mg/kg DPN, 10.8 mg/kg Compound 1), every other day, day 12 to day 48; FIG. 1A
[5] = system: adoptive EAE; test: adoptive EAE clinical score (Example 2); format: in vivo, mice; conditions: FIG. 2A; for EAE clinical score, dose dependence: high (8 mg/kg/day) and low (2 mg/kg/day) dose
Source text: Active EAE induction in Example 1 uses pertussis toxin to artificially make the BBB more permeable and permit more infiltration of activated Th1/Th17 immune cells into the CNS. […] Thus, an alternative EAE induction method was used. Adoptive EAE uses MOG primed and activated immune cells from donor immunized mice for subsequent transfer into recipient mice with no administration of pertussis toxin. Thus, the blood brain barrier interactions in adoptive EAE are more physiologic than in active EAE. […] This experiment was larger since 2 sets of mice (donors and recipients) were needed and 2 doses were used, making the adoptive EAE experiment 4 times larger than the active EAE experiment 1. […] Brain and spinal cord levels were undetectable 24 hours after dosing.

[6] = tissue concentrations of DPN in healthy mice (Example 3); format: in vivo; conditions: for levels of DPN in plasma, brain and spinal cord, compared to dosing with DPN: molar equivalent doses
Procedure: Compound 1 levels were not measured. […] At 12 hours, only high dose Compound 1 was detectable in plasma.
This experiment was repeated and the data above was confirmed.
This experiment was repeated with fresher standards and faster freezing of tissues once obtained from the mouse sacrifice.

[7] = system: EAE; conditions: cited from earlier work
[8] = system: multiple sclerosis; conditions: cited from earlier work
[9] = MS patients, phase 2 clinical trial

SMILES: CC(=O)Oc1ccc(C[C@@H](C#N)c2ccc(OC(C)=O)cc2)cc1 [Compound 1]
brain and spinal cord levels [1]: undetectable
plasma concentration of DPN, Compound 1 vs DPN ([1]; FIG. 2B): no difference
persistence in brain and spinal tissue [2]: persisted
amounts of DPN in plasma, spinal cord tissue and brain tissue [3]: improvement in maintaining effective amounts of DPN
effect on EAE disease progression (EAE clinical score) [4]: protective effects
efficacy on EAE clinical score compared to DPN ([5]; adoptive EAE): more efficacy
EAE clinical score, dose dependence [5]: dose responses
levels of DPN in plasma, brain and spinal cord, compared to dosing with DPN ([6]; 3 and 6 hours): higher
levels of DPN in plasma, brain and spinal cord, compared to dosing with DPN ([6]; 15 minutes): lower
DPN level in plasma ([6]; 12 hours, high dose): detectable

persistence in brain and spinal tissue [2]: persisted
concentration in plasma, spinal cord and brain tissue, among DPN, Compound 1 and Compound 2 ([2]; first 6 hours after treatment, FIG. 7A-7C): highest concentration
SMILES: CCC(=O)Oc1ccc(CC(C#N)c2ccc(OC(=O)CC)cc2)cc1 (stereo not drawn) [Compound 2]

SMILES: N#CC(Cc1ccc(O)cc1)c1ccc(O)cc1 (stereo not drawn) [DPN, 2,3-bis(4-hydroxyphenyl)propanenitrile, reference compound]
brain and spinal cord levels [1]: undetectable
effect on EAE disease progression (EAE clinical score) [4]: protective effects
EAE clinical score, dose dependence [5]: dose responses
efficacy in EAE of dosing regimen ([7]; dosing every two days, shown in the past): efficacious
clinical EAE disease severity ([7]; known treatment of EAE): reduces clinical EAE disease severity
tolerability of dosing regimen ([7]; mouse, in vivo): tolerable

SMILES: C[C@]12CC[C@@H]3c4ccc(O)cc4CC[C@H]3[C@@H]1C[C@@H](O)[C@@H]2O [estriol]
fatigue [8, 9]: reduced fatigue
relapses [8, 9]: reduced relapses
cortical gray matter atrophy ([8]; estriol as compared to placebo treated MS patients): spared
